Experimental data taken from patent US3962282A, “Juvenile hormone mimics” (priority 1974, dated 1976).

Columns and labels:
[1] = tested on: Mexican bean beetle larvae; test: soil drench of bean plants with Mexican bean beetle larvae; assay type: in vivo; settings: scale 0-3
Description: Bean plants of the Bountiful variety were placed in soil and allowed to grow with 10 Mexican bean beetle larvae on each cluster. To the soil around each plant was added 200 ml. of a solution containing 2,6-dimethyl-9-(3,4-methylenedioxyphenyl)-2,6-nonadiene. The soil was then covered with aluminum foil to prevent the larvae from coming in contact with the compound. Three different concentrations of compound were applied. These were prepared from a 48 percent emulsifiable concentrate by diluting 10 ml., 4 ml., and 2 ml. of the concentrate to a volume of 200 ml. with water. A control using 200 ml. of just water and another using no drench were also run. The results are tabulated below using the same rating system as described earlier for the primary screening test agains Mexican bean beetle.

aphid nymphs = test: application to aphid nymphs in acetone; assay type: in vivo, Aphis gossypi; settings: 3 days
Description: In another test, female aphids were placed on young squash plants and allowed to produce young for 24 hours. After 24 hours, all adult aphids were removed from the plants and the young were maintained on the plants for an additional 48-hour period. This gave an aphid nymph population having an age of 48 to 72 hours. To each nymph was applied […]. of a 10 percent, 1 percent, or 0.5 percent solution of 2.6- dimethyl-9-(3,4-methylenedioxyphenyl)-2,6-nonadiene or 7,8-epoxy-4-ethyl-8-methyl-1-(3,4-methylenedioxyphenyl)-3-decene in acetone and the aphid nymphs were transferred to new squash plants and observed for possible effects. Ten nymphs were treated with each concentration of each compound and 10 were treated with acetone alone while 10 were not treated to serve as controls. […] There was only one dead nymph treated with acetone alone and one dead nymph in the nontreated controls.

Tenebrio molitor pupae = test: topical application to Tenebrio molitor pupae, maturation inhibition; assay type: in vivo; settings: rating scale 0-4
Method in brief: (§1)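 Compounds applied topically, 1 μL acetone solution at 10%, 1% or 0.5%, to ten specimens per insect per concentration, alongside acetone and untreated controls; scored after about 8–10 days. Juvenile/adult characteristics rated 0–3 (Tenebrio 0–4), ≥2 meaning unable to reproduce; unreported specimens died during metamorphosis.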

wax moth = test: topical application to wax moth, fifth larval stage, maturation inhibition; assay type: in vivo
Method in brief: as §1

[2] = tested on: cockroach nymphs (Blattella germanica); test: German cockroach nymphs in treated glass jars; assay type: in vivo; settings: for reproduction: four months
Description: Test jars were prepared by adding 2 ml. of an acetone solution containing 10 mg., 20 mg., or 100 mg. of 2,6-dimethyl-9-(3,4-methylenedioxyphenyl)-2,6-nonadiene to 1 gallon glass jars and allowing the acetone to evaporate. The jars were equipped with watering bottles, food, and paper towels. There were two jars for each rate of test compound and two jars for nontreated controls. To each jar were added 20 40-day-old cockroach nymphs (Blattella germanica). […] Thus, the nonadiene at 100 mg. had prevented reproduction for 4 months.

[3] = tested on: Mexican bean beetle larvae; test: spray of caged flats of bean plants with Mexican bean beetle larvae; assay type: in vivo
Description: Six-foot by 12-foot caged flats were planted with Bountiful variety bean plants in two 12-foot rows. Into each cage were introduced 100 Mexican bean beetle larvae. Each cage was then sprayed with 500 ml. of a solution prepared by diluting a 48 percent emulsifiable concentrate of 2,6-dimethyl-9-(3,4-methylenedioxyphenyl)-2,6-nonadiene to the desired concentration. Two flats were treated at each concentration and two were used as controls.

[4] = tested on: Aedes aegypti mosquito larvae; test: mosquito larvae in aqueous solutions, adult emergence; assay type: in vivo; settings: for number of adults, Jar 1 Dead / number of adults, Jar 1 Living / number of adults, Jar 2 Dead / number of adults, Jar 2 Living: 13 days
Description: Two compounds, 7,8-epoxy-4-ethyl-8-methyl-1-(3,4-methylenedioxyphenyl)-3-decene and 2,6-diemthyl-9-(3,4-methylenedioxyphenyl)-2,6-nonadiene, were tested against Aedes aegypti mosquito larvae in aqueous solutions at concentrations of 10, 5, 2.5. 1.25 and 0.625 ppm. each. Ninety milliliters of each solution were placed in a pint jar and 30 five-day-old mosquito larvae were added to each jar. Two tests were run at each concentration and control tests employing only solvent with no compound were also run. Food was added to each jar, the jars were covered with cloths, and maintained at 29°C. until adults emerged in the control jars. The number of adults in the test jars was determined.

CC(C)=CCCC(C)=CCCc1ccc2c(c1)OCO2 [2,6-dimethyl-9-(3,4-methylenedioxyphenyl)-2,6-nonadiene]
number in rating 0 ([1]; 2 ml. concentrate/200 ml.): 8
number in rating 3 ([1]; 2 ml. concentrate/200 ml.): 2
number in rating 0 ([1]; 4 ml. concentrate/200 ml.): 2
number in rating 3 ([1]; 4 ml. concentrate/200 ml.): 8
number in rating 0 ([1]; 10 ml. concentrate/200 ml.): 1
number in rating 3 ([1]; 10 ml. concentrate/200 ml.): 9
dead nymphs (aphid nymphs; 0.5 percent): nine of the ten
dead nymphs (aphid nymphs; 1 percent): all of the nymphs
dead nymphs (aphid nymphs; 10 percent): all of the nymphs
number of specimens in rating 4 (Tenebrio molitor pupae; 0.5%): 9 specimens
number of specimens in rating 4 (Tenebrio molitor pupae; 1%): 10 specimens
number of specimens in rating 4 (Tenebrio molitor pupae; 10%): 10 specimens
number of specimens in rating 0 (wax moth; 0.5%, rating scale 0-3): 8 specimens
number of specimens in rating 1 (wax moth; 0.5%, rating scale 0-3): 1 specimens
number of specimens in rating 0 (wax moth; 1%, rating scale 0-3): 9 specimens
number of specimens in rating 3 (wax moth; 1%, rating scale 0-3): 1 specimens
number of specimens in rating 0 (wax moth; 10% in acetone, 1 microliter topical, rating scale 0 (no effect) to 3 (maximum)): 7 specimens
number of specimens in rating 1 (wax moth; 10%, rating scale 0-3): 2 specimens
number of specimens in rating 3 (wax moth; 10%, rating scale 0-3): 1 specimens
state of adults and nymphs ([2]; 10 mg, about 2 1/2 months): normal adults and newly hatched nymphs
state of adults and nymphs ([2]; 20 mg, about 2 1/2 months): normal adults and newly hatched nymphs
duration of prevented reproduction ([2]; 100 mg): 4 months
newly hatched nymphs ([2]; 100 mg, about 2 1/2 months): did not contain newly hatched nymphs
wings of adults ([2]; 100 mg, about 2 1/2 months): all adults in the jars had deformed wings
reproduction ([2]; 100 mg): no reproduction
reproduction ([2]; lower rate jars (10 and 20 mg)): large numbers of newly hatched nymphs
% Control ([3]; 0.1 lbs./acre): 13%
% Control ([3]; 0.2 lbs./acre): 71.5%
% Control ([3]; 0.4 lbs./acre): 75.5%
% Control ([3]; 0.8 lbs./acre): 98.5%
number of adults, Jar 1 Dead ([4]; 0.625 ppm): 21
number of adults, Jar 1 Living ([4]; 0.625 ppm): 1
number of adults, Jar 2 Dead ([4]; 0.625 ppm): 21
number of adults, Jar 2 Living ([4]; 0.625 ppm): 0
number of adults, Jar 1 Dead ([4]; 1.25 ppm): 1
number of adults, Jar 1 Living ([4]; 1.25 ppm): 3
number of adults, Jar 2 Dead ([4]; 1.25 ppm): 10
number of adults, Jar 2 Living ([4]; 1.25 ppm): 1
number of adults, Jar 1 Dead ([4]; 2.5 ppm): 0
number of adults, Jar 1 Living ([4]; 2.5 ppm): 0
number of adults, Jar 2 Dead ([4]; 2.5 ppm): 1
number of adults, Jar 2 Living ([4]; 2.5 ppm): 0
number of adults, Jar 1 Dead ([4]; 5 ppm): 0
number of adults, Jar 1 Living ([4]; 5 ppm): 0
number of adults, Jar 2 Dead ([4]; 5 ppm): 0
number of adults, Jar 2 Living ([4]; 5 ppm): 0
number of adults, Jar 1 Dead ([4]; 10 ppm): 0
number of adults, Jar 1 Living ([4]; 10 ppm): 0
number of adults, Jar 2 Dead ([4]; 10 ppm): 0
number of adults, Jar 2 Living ([4]; 10 ppm): 0
control ([4]; at concentrations as low as 2.5 ppm): 100%
live adults in the jars ([4]; nonadiene at 10, 5, and 2.5 ppm, decene at any concentration): never any live adults
